{"source": "patent US10317393B2", "about": "“Alkynyl sugar analogs for labeling and visualization of glycoconjugates in cells” (Academia Sinica, priority 2007, dated 2019)", "test_system": "Jurkat cells", "experiment": "Flow cytometry of cell surface labeling after click with biotin azide probe 6 and fluorescein-conjugated streptavidin", "format": "cell-based, human", "experimental": "In another exemplary implementation, a method for labeling fucosylated glycoconjugates at the cell surface is disclosed. In one aspect, Jurkat cells are grown in the presence of derivatized alkynyl Fuc 1. After treatment, cells are subjected to CuAAC (click chemistry) to couple biotinylated azido probe 6 with any alkynyl Fuc-bearing glycoconjugates, and stained with fluorescein-conjugated streptavidin.\nLabeling alkynyl Fuc-bearing cell surface glycoconjugates is illustrated in FIGS. 1A, 1B, 1C and 1D. FIGS. 1A, 1B, 1C and 1D show analysis of cells tagged with Fuc analogs analyzed by monitoring fluorescence intensity with flow cytometry after labeling with a biotin azide probe 6 and staining cells with fluorescein-conjugated streptavidin. […] Without being bound by theory, incorporation of the derivatized Fuc analogs into fucosylated glycoconjugates likely occurs via the Fuc salvage pathway.\nIt is now disclosed in one exemplary implementation of the disclosure that treating cells with derivatized alkynyl ManNAc 4 results in derivatized alkyne-bearing sialyl glycoconjugates. In one aspect of the method, cells are treated with 4 at various concentrations for one to 3 days. Modified sugar analogs and probes used in this disclosure are shown in Scheme 1. Tagging of the cell surface glycoconjugates by derivatized alkynyl ManNAc is illustrated in FIGS. 2A, 2B, 2C and 2D. FIGS. 2A, 2B, 2C and 2D show analysis of cells labeled with ManNAc analogs analyzed by monitoring fluorescence intensity with flow cytometry after clicking on the biotin azide probe 6 and staining cells with fluorescein-conjugated streptavidin. […] Compared with the MFI of controls, there was significant labeling on cells treated with derivatized alkynyl ManNAc 4, even at concentrations as low as 3 micromolar (15-fold increase). […] The optimal concentration of 4 for tagging sialyl glycoconjugates falls between 25 and 50 micromolar.\nJurkat cells were cultivated (2×10^6/10 ml) in RPMI medium 1640 supplemented with 10% FCS and various concentrations of peracetylated alkynyl sugars 1, 2, or 4 or native sugars 3 or 5, for 1-3 days at 37° C. Cells were then harvested, washed with 0.1% FCS/PBS, and resuspended (10^6 cells) in 100 microliters of click reaction solution (0.1 mM biotin probe 6 or fluorogenic probe 7/0.1 mM Tris-thiazoleamine catalyst/0.1 mM CuSO4/0.5 mM sodium ascorbate, in PBS). The reaction was incubated at room temperature for 30 min, and then the cells were washed twice with 0.1% FCS/PBS. Cells treated with biotin probe 6 were subsequently stained with fluorescein-conjugated streptavidin (0.5 microgram per sample in 50 microliters of 1% FCS/PBS) for 30 min at 4° C., and washed three times with 1% FCS/PBS. Data were acquired by BD LSR II with FACSDiva software, and were analyzed by CellQuestPro software (BD Biosciences). Detection of fluorescent adduct with probe 7 was monitored with a 408 nm laser and a 440/40 bandpass filter for excitation and emission, respectively."}
{"substance": "1,2,3,4-tetraacetyl alkynyl fucose [alkynyl Fuc 1]", "values": [{"measurement": "saturation of incorporation, incubation time", "setting": "200 micromolar", "value": "one"}, {"measurement": "mean fluorescence intensity (MFI) compared with Fuc treated cells", "setting": "200 micromolar, biotin probe 6/fluorescein-streptavidin", "value": 3, "unit": "fold"}, {"measurement": "dose dependency of glycan tagging", "setting": "3 days", "value": "dose dependent increase of fluorescence signal"}, {"measurement": "fluorescence intensity / cell surface signal compared with control sugar-treated cells", "setting": "biotin probe 6/fluorescein-streptavidin", "value": "increased fluorescence intensity"}]}
